The source of these data is BindingDB's records for doi:10.7270/Q2MP51PC (Pcmd, 2008).

The structures appear in SMILES notation. A value given as a limit tells only on which side of the number the result lay.

The assay has as its target T1, Complement C1s subcomponent (Homo sapiens, UniProt P09871).
T1 sequence (P09871 whole entry): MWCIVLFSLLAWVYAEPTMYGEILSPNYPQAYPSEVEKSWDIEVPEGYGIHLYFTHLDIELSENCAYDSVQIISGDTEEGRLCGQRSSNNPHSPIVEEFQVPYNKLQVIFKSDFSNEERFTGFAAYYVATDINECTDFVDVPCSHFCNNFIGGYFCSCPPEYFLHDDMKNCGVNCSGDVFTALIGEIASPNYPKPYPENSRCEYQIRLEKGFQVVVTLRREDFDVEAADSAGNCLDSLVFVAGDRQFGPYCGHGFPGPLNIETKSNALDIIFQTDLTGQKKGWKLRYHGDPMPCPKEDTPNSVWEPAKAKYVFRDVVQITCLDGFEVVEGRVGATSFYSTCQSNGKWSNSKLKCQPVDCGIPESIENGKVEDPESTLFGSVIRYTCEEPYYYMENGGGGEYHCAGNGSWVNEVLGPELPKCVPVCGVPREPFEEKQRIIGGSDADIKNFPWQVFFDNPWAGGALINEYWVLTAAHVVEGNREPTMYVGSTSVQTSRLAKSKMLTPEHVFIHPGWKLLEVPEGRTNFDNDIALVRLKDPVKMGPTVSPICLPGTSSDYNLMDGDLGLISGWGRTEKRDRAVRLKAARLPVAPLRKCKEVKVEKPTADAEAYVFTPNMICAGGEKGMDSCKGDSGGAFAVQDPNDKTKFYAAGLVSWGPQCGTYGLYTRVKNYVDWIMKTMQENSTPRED
Kind of assay: concentration-response of complement C1s inhibitors – biochemical, dose response (AID 787).

With `COc1ccccc1CN1CCCCC1c1cccnc1` (configuration not stated) [3-(1-o-anisyl-2-piperidyl)pyridine], the half-maximal inhibitory concentration (IC50) was more than 50 µM.

`Cc1c(NC(=O)C2Cc3ccccc3CN2C(=O)c2ccco2)c(=O)n(-c2ccccc2)n1C` (configuration not stated) [2-(2-furoyl)-N-(3-keto-1,5-dimethyl-2-phenyl-3-pyrazolin-4-yl)-3,4-dihydro-1H-isoquinoline-3-carboxamide] displayed a concentration for half-maximal inhibition (IC50) of more than 50 µM.

Take `COc1ccccc1CNC(=O)C1COc2ccccc2O1` (configuration not stated) [MLS000110123]: the IC50 is more than 50 µM.

`COc1ccc(S(=O)(=O)N2CCOCC2)cc1C(=O)Nc1nc2ccccc2s1` [MLS000088961] registered an IC50 of more than 50 µM.

On to `Cn1c(=O)c2[nH]c(NCC3CCCO3)nc2n(-c2ccccc2)c1=O` (configuration not stated) [1-methyl-8-(2-oxolanylmethylamino)-3-phenyl-7H-purine-2,6-dione], for which the IC50 is more than 50 µM.

With `O=C(N1CCOCC1)C12CCC3CC(CC(C3)C1)C2` [MLS000071057], the IC50 was more than 50 µM.

`CC(=O)Nc1ccc(NC(C)=O)s1` [MLS000105054] returned an IC50 of more than 50 µM.

In turn, `O=C(Oc1ccc(Cl)cc1-n1c(O)ccc1O)c1ccco1` [4-chloro-2-(2,5-dioxo-1-pyrrolidinyl)phenyl 2-furoate] had an IC50 of more than 50 µM.

The compound `N#Cc1cnn(CC2CCCCC2)c1N` [5-amino-1-(cyclohexylmethyl)-4-pyrazolecarbonitrile] yielded an IC50 of more than 50 µM.

`CCC(=O)n1nc(-c2ccco2)nc1SCc1ccccc1` [1-[3-(2-furanyl)-5-(phenylmethylthio)-1,2,4-triazol-1-yl]-1-propanone] yielded an IC50 of more than 50 µM.

The compound `Cc1csc(N(C(=O)c2cccc(S(=O)(=O)N(C)C)c2)c2ccccc2)n1` [3-(dimethylsulfamoyl)-N-(4-methyl-1,3-thiazol-2-yl)-N-phenyl-benzamide] yielded an IC50 of more than 50 µM.

`Nc1nc(C(=O)N2CCOCC2)nn1C(=O)c1ccc(Cl)cc1` [(5-azanyl-3-morpholin-4-ylcarbonyl-1,2,4-triazol-1-yl)-(4-chlorophenyl)methanone] returned an IC50 of 12.1 µM.

`O=C(Nc1nccs1)c1cccc(S(=O)(=O)N2CCCCC2)c1` [3-(1-piperidinylsulfonyl)-N-(2-thiazolyl)benzamide] yielded an IC50 of more than 50 µM.

As to `COc1ccc(-c2nc(SC)n(C(=O)c3ccco3)n2)cc1` [1-(2-furoyl)-3-(4-methoxyphenyl)-5-(methylthio)-1H-1,2,4-triazole], the midpoint of inhibition, the IC50, lay at 15.6 µM. That is a double-digit micromolar value.

In turn, `c1cncc(-c2nnc3n2N=C(c2cccs2)CS3)c1` [3-pyridin-3-yl-6-thiophen-2-yl-7H-[1,2,4]triazolo[3,4-b][1,3,4]thiadiazine] showed an IC50 of more than 50 µM.

The compound `CCOc1cc2[nH]c(=S)n(CC3CCCO3)c(=O)c2cc1OCC` (configuration not stated) [6,7-diethoxy-3-(2-oxolanylmethyl)-2-sulfanylidene-1H-quinazolin-4-one] registered an IC50 of more than 50 µM.

`COC(=O)COc1cccc(NC(=O)c2ccccc2)c1` [2-(3-benzamidophenoxy)acetic acid methyl ester]: the IC50 is more than 50 µM.

Consider `CCn1c(=O)c(C(C)=O)nc2ccccc21` [3-acetyl-1-ethyl-2-quinoxalinone], for which the IC50 was more than 50 µM.

In turn, `COc1ccc(C(=O)n2ccc(C)n2)cc1Br` [(3-bromanyl-4-methoxy-phenyl)-(3-methylpyrazol-1-yl)methanone] yielded an IC50 of more than 50 µM.

As to `O=C(c1ccco1)N1CCN(S(=O)(=O)c2ccc(S(=O)(=O)NC3CCCCC3)cc2)CC1` [MLS000068710], the IC50 is more than 50 µM.

The compound `COc1ccc(C(=O)n2nnc3ccccc32)cc1Br` [1-benzotriazolyl-(3-bromo-4-methoxyphenyl)methanone] registered a half-maximal inhibitory concentration (IC50) of 5.59 µM.

For `CCCCn1c(=O)cc(N2CCOCC2)[nH]c1=O` [SMR000018178], the IC50 was more than 50 µM.

The compound `CCN1CCN(c2ccc(-n3c(C)nc4c(cnn4-c4ccccc4Cl)c3=O)cc2)CC1` [1-(2-chlorophenyl)-5-[4-(4-ethyl-1-piperazinyl)phenyl]-6-methyl-4-pyrazolo[3,4-d]pyrimidinone] had an IC50 of more than 50 µM.

`CC(C)(C)c1cc(C(=O)NCc2ccccc2)ccn1` [2-tert-butyl-N-(phenylmethyl)-4-pyridinecarboxamide] returned an IC50 of more than 50 µM.

The compound `Cc1cc(NC(=O)c2cc3nc(C4CC4)cc(C(F)(F)F)n3n2)no1` [5-cyclopropyl-N-(5-methyl-1,2-oxazol-3-yl)-7-(trifluoromethyl)pyrazolo[1,5-a]pyrimidine-2-carboxamide] yielded a half-inhibitory concentration (IC50) of more than 50 µM.

Turning to `CCCCC(=O)Nc1ccc(NC(=O)c2ccc3c(c2)OCO3)cc1OC` [MLS000097195], the IC50 is more than 50 µM.

Compound `CCn1c(CCn2ccnc2C)n[nH]c1=S` [4-ethyl-5-[2-(2-methyl-1H-imidazol-1-yl)ethyl]-2,4-dihydro-3H-1,2,4-triazole-3-thione] displayed an IC50 of more than 50 µM.

Consider `Cc1cc(C)c2c(CC(=O)NCc3ccco3)coc2c1` [2-(4,6-dimethyl-1-benzofuran-3-yl)-N-(2-furylmethyl)acetamide], for which the IC50 was more than 50 µM.

As for `CC1CCN(S(=O)(=O)c2cccc(C(=O)NCc3cccs3)c2)CC1` [3-(4-Methyl-piperidine-1-sulfonyl)-N-thiophen-2-ylmethyl-benzamide], the IC50 was more than 50 µM.

On to `CC(=O)NC(=O)NC1CSCC1OC(C)=O` (configuration not stated) [4-{[(acetylamino)carbonyl]amino}tetrahydro-3-thienyl acetate], for which the IC50 is more than 50 µM.

For `COc1ccccc1S(=O)(=O)Cc1ccc(C(=O)NCCN(C)C)o1` [MLS000120198], the IC50 was more than 50 µM.

In the case of `Cc1ccc(CCNC(=O)C2CCC(=O)N2Cc2cccnc2)cc1` (configuration not stated) [5-keto-N-[2-(p-tolyl)ethyl]-1-(3-pyridylmethyl)pyrrolidine-2-carboxamide], the IC50 was more than 50 µM.

Compound `O=C(Nc1ccc(Cl)cc1)c1ccc2c(c1)OCO2` [MLS000062068] gave an IC50 of more than 50 µM.

`CC(C)NC(=O)c1cc(-c2ccc(Br)cc2)on1` [5-(4-bromophenyl)-N-isopropyl-isoxazole-3-carboxamide] yielded a half-maximal inhibitory concentration (IC50) of more than 50 µM.

Regarding `CSc1nc(-c2ccco2)nn1C(=O)c1ccc(C)cc1` [[3-(furan-2-yl)-5-methylsulfanyl-1,2,4-triazol-1-yl]-(4-methylphenyl)methanone], half-maximal inhibition (IC50) required 0.9 µM.

`CCCS(=O)(=O)N1CCC(C(=O)N2CCN(Cc3ccccc3)CC2)CC1` [(4-benzylpiperazin-1-yl)-(1-propylsulfonylpiperidin-4-yl)methanone] displayed an IC50 of more than 50 µM.

`Cc1cc(NC(=O)c2cccc(S(=O)(=O)N3CCCCCC3)c2)n(-c2ccccn2)n1` [3-(1-azepanylsulfonyl)-N-[5-methyl-2-(2-pyridinyl)-3-pyrazolyl]benzamide] returned a 50% inhibitory concentration (IC50) of more than 50 µM.

`O=C(Nc1nccs1)c1cccc(S(=O)(=O)N2CCOCC2)c1` [3-(4-morpholinylsulfonyl)-N-(2-thiazolyl)benzamide] displayed an IC50 of more than 50 µM.

With `COc1ccc(Nc2cc(C)nc3nc(C)nn23)c(OC)c1` [(2,4-dimethoxyphenyl)-(2,5-dimethyl-[1,2,4]triazolo[1,5-a]pyrimidin-7-yl)amine], the IC50 was more than 50 µM.

Compound `C#CCOC(=O)c1ccccc1C(=O)n1nnc2ccccc21` displayed an IC50 of 4.26 µM. That is a single-digit micromolar value.

For `NC(=O)C1(N2CCCCC2)CCN(C(=O)Nc2ccccc2C(F)(F)F)CC1` [4-(1-piperidinyl)-N1-[2-(trifluoromethyl)phenyl]piperidine-1,4-dicarboxamide], the IC50 was more than 50 µM.

As for `COc1cc(C)nc(NS(=O)(=O)c2ccccc2)n1` [MLS000100375], the IC50 is more than 50 µM.
